Measured values as given in PubChem BioAssay (NCI).
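How tested: cells in 96-well plates exposed to compound for 48 hours at five concentrations. TGI: concentration producing complete growth inhibition.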

The compounds below were run on IGROV1 ovarian (assay: inhibition of tumour cell growth, NCI panel, 48 h).
With `COc1cc2c(cc1O)CC[n+]1cc3c(OC)c(OC)ccc3cc1-2` the TGI was greater than 100 µM. `NC(=S)N=Nc1c(O)cc(Nc2ccc(Cl)cc2Cl)c2ccccc12` showed a TGI of 88 µM. Work on `CC[P+](C#Cc1ccccc1)(c1ccccc1)c1ccccc1` yielded a TGI of 11.9 µM. With `Cc1ccc(C(=O)c2[nH]c(Nc3cc(C)ccn3)c(C(=S)Nc3ccccc3)c2N)cc1` the TGI was greater than 100 µM. For `Clc1cccc(C2ON=C(c3ccccc3)N2C23CC4CC(CC(C4)C2)C3)c1Cl` (stereo not drawn), the TGI was greater than 10 µM. Work on `CNc1ccc2c(c1)Cc1ccccc1-2` yielded a TGI greater than 100 µM. In the case of `CCN(CC(=O)O)CC(=O)O`, the TGI is reported as greater than 100 µM. Work on `Cc1cc(C)nc(NS(=O)(=O)c2ccc(Nc3c4ccccc4nc4c(C(=O)NCCO)cccc34)cc2)n1` yielded a TGI greater than 100 µM. Compound `O=C1NN=C(c2c[nH]c3ccccc23)CC1NCc1ccccc1` (stereo not drawn) has a TGI greater than 100 µM. Compound `O=C(NCCCNCCCCNCCCNC(=O)C(F)(F)F)C(F)(F)F` has a TGI greater than 100 µM. Work on `O=C(O)c1cc2ccccc2c(S(=O)(=O)O)c1O` yielded a TGI greater than 100 µM. Work on `COC(=O)c1sc2ncc3c(c2c1N)CC(C)CC3` (stereo not drawn) yielded a TGI greater than 100 µM. `CCOC(=O)c1[nH]c2nc(SC)nc(NC)c2c1N` was tested, and the TGI was greater than 100 µM. Work on `Cc1cccc(NC(Nc2cccc(C)c2)=C(C(Cl)=C(Cl)Cl)[N+](=O)[O-])c1` yielded a TGI of 20.3 µM. Compound `CC1=CCC[C@H]2[C@](C)(CC3=CC(=O)C4SCCSC4C3=O)[C@@H](C)CC[C@]12C` (stereo partly drawn) has a TGI of 84.6 µM. `COC(=O)C1=C(C(=O)OC)C2(C)CCC(=O)C1O2` (stereo not drawn) showed a TGI greater than 10 µM. `Nc1n[nH]c2ccccc12` was tested, and the TGI was greater than 100 µM.

These compounds were tested on SF-268 CNS (assay: inhibition of tumour cell growth, NCI panel, 48 h).
In the case of `CC(O)(C(=O)N(O)c1ccc(Cl)cc1)c1ccc(Cl)cc1` (stereo not drawn), the TGI is reported as greater than 100 µM. In the case of `CC1(C)[C@@H]2C[C@H]1c1cnc(-c3ccccn3)cc1[C@H]2C(O)[C@@H]1c2cc(-c3ccccn3)ncc2[C@H]2C[C@@H]1C2(C)C` (stereo partly drawn), the TGI is reported as 16.6 µM. For `COc1ccc(N2C(=O)C3c4[nH]c5ccccc5c4C4C(C)CCCC4C3C2=O)cc1` (stereo not drawn), the TGI was greater than 100 µM. `Brc1ccc2c(c1)-c1nc3c(cc1CC2)CCc1ccc(Br)cc1-3` showed a TGI greater than 100 µM. In the case of `OC(c1ccco1)C(F)(F)c1nc2ccccc2o1` (stereo not drawn), the TGI is reported as greater than 100 µM. For `CCN(C(=O)N[C@H](C(=O)N[C@@H](C)C(=O)OC)C(C)C)c1ccccc1`, the TGI was greater than 100 µM. `CCOC(=O)c1ccc(C(=O)/C(C(=O)OC(C)(C)C)=C2\CCCN2C)n1C` showed a TGI greater than 100 µM. `Cc1cc2c(cc1Cl)SC(NNc1cnc3ccccc3n1)=NS2(=O)=O` showed a TGI greater than 100 µM. With `O=[N+]([O-])c1ccc2nc3c(nc2c1)-c1c2ccccc2cc2cccc-3c12` the TGI was greater than 100 µM. `COc1ccc(CN2C(=O)C(=O)N(C)C2=O)c2ccccc12` gave a TGI greater than 10 µM. Compound `OCC1OC(O[C@H]2CN3[C@H](O)[C@@H](O)[C@H](O)[C@H]3C2O)C(O)C(O)C1O` (stereo partly drawn) has a TGI greater than 100 µM. Work on `O=S1(=O)c2ccccc2NC(=S)N1c1ccccc1` yielded a TGI greater than 100 µM. For `COC(=O)C(CCSC)NC(=O)CSc1nnc(COc2ccc(Cl)cc2)n1-c1ccccc1` (stereo not drawn), the TGI was 34.5 µM. Compound `COc1cc(/C=C/c2cc(=O)cc(/C=C/c3ccc(O)c(OC)c3)o2)ccc1O` has a TGI greater than 100 µM. In the case of `COn1cc(CO)c2ccccc21`, the TGI is reported as greater than 100 µM. `NNC(=O)c1cccc2c1Oc1ccccc1S2` showed a TGI greater than 100 µM. For `O=C(/C=C1\C[C@H]2C=Nc3ccccc3C(=O)N2C1)NCCCCCNC(=O)/C=C1\C[C@H]2C=Nc3ccccc3C(=O)N2C1`, the TGI was 18.5 µM. `COc1cc2c(cc1O)CC[n+]1cc3c(OC)c(OC)ccc3cc1-2` gave a TGI greater than 100 µM. With `NC(=S)N=Nc1c(O)cc(Nc2ccc(Cl)cc2Cl)c2ccccc12` the TGI was greater than 100 µM. `CC[P+](C#Cc1ccccc1)(c1ccccc1)c1ccccc1` gave a TGI of 8.71 µM. `Cc1ccc(C(=O)c2[nH]c(Nc3cc(C)ccn3)c(C(=S)Nc3ccccc3)c2N)cc1` was tested, and the TGI was greater than 100 µM. Work on `Clc1cccc(C2ON=C(c3ccccc3)N2C23CC4CC(CC(C4)C2)C3)c1Cl` (stereo not drawn) yielded a TGI greater than 10 µM. `CNc1ccc2c(c1)Cc1ccccc1-2` showed a TGI greater than 100 µM. `CCN(CC(=O)O)CC(=O)O` showed a TGI greater than 100 µM. `Cc1cc(C)nc(NS(=O)(=O)c2ccc(Nc3c4ccccc4nc4c(C(=O)NCCO)cccc34)cc2)n1` gave a TGI of 58.6 µM. Work on `O=C1NN=C(c2c[nH]c3ccccc23)CC1NCc1ccccc1` (stereo not drawn) yielded a TGI greater than 100 µM. `O=C(NCCCNCCCCNCCCNC(=O)C(F)(F)F)C(F)(F)F` showed a TGI greater than 100 µM. Compound `O=C(O)c1cc2ccccc2c(S(=O)(=O)O)c1O` has a TGI greater than 100 µM. `COC(=O)c1sc2ncc3c(c2c1N)CC(C)CC3` (stereo not drawn) gave a TGI greater than 100 µM. For `CCOC(=O)c1[nH]c2nc(SC)nc(NC)c2c1N`, the TGI was greater than 100 µM. In the case of `Cc1cccc(NC(Nc2cccc(C)c2)=C(C(Cl)=C(Cl)Cl)[N+](=O)[O-])c1`, the TGI is reported as 30.6 µM. With `COC(=O)C1=C(C(=O)OC)C2(C)CCC(=O)C1O2` (stereo not drawn) the TGI was greater than 10 µM. With `Nc1n[nH]c2ccccc12` the TGI was greater than 100 µM.

The compounds below were run on SK-MEL-28 melanoma (assay: inhibition of tumour cell growth, NCI panel, 48 h).
`CC(O)(C(=O)N(O)c1ccc(Cl)cc1)c1ccc(Cl)cc1` (stereo not drawn) showed a TGI greater than 100 µM. With `CC1(C)[C@@H]2C[C@H]1c1cnc(-c3ccccn3)cc1[C@H]2C(O)[C@@H]1c2cc(-c3ccccn3)ncc2[C@H]2C[C@@H]1C2(C)C` (stereo partly drawn) the TGI was 29.7 µM. `COc1ccc(N2C(=O)C3c4[nH]c5ccccc5c4C4C(C)CCCC4C3C2=O)cc1` (stereo not drawn) showed a TGI greater than 100 µM. `Brc1ccc2c(c1)-c1nc3c(cc1CC2)CCc1ccc(Br)cc1-3` showed a TGI greater than 100 µM. Work on `OC(c1ccco1)C(F)(F)c1nc2ccccc2o1` (stereo not drawn) yielded a TGI greater than 100 µM. Compound `CCN(C(=O)N[C@H](C(=O)N[C@@H](C)C(=O)OC)C(C)C)c1ccccc1` has a TGI greater than 100 µM. Work on `CCOC(=O)c1ccc(C(=O)/C(C(=O)OC(C)(C)C)=C2\CCCN2C)n1C` yielded a TGI greater than 100 µM. Compound `Cc1cc2c(cc1Cl)SC(NNc1cnc3ccccc3n1)=NS2(=O)=O` has a TGI greater than 100 µM. For `O=[N+]([O-])c1ccc2nc3c(nc2c1)-c1c2ccccc2cc2cccc-3c12`, the TGI was greater than 100 µM. With `COc1ccc(CN2C(=O)C(=O)N(C)C2=O)c2ccccc12` the TGI was greater than 10 µM. `OCC1OC(O[C@H]2CN3[C@H](O)[C@@H](O)[C@H](O)[C@H]3C2O)C(O)C(O)C1O` (stereo partly drawn) gave a TGI greater than 100 µM. `O=S1(=O)c2ccccc2NC(=S)N1c1ccccc1` was tested, and the TGI was greater than 100 µM. `COC(=O)C(CCSC)NC(=O)CSc1nnc(COc2ccc(Cl)cc2)n1-c1ccccc1` (stereo not drawn) was tested, and the TGI was 33.8 µM. For `COc1cc(/C=C/c2cc(=O)cc(/C=C/c3ccc(O)c(OC)c3)o2)ccc1O`, the TGI was greater than 100 µM. Work on `COn1cc(CO)c2ccccc21` yielded a TGI greater than 100 µM. Compound `NNC(=O)c1cccc2c1Oc1ccccc1S2` has a TGI greater than 100 µM. In the case of `O=C(/C=C1\C[C@H]2C=Nc3ccccc3C(=O)N2C1)NCCCCCNC(=O)/C=C1\C[C@H]2C=Nc3ccccc3C(=O)N2C1`, the TGI is reported as 27.4 µM. With `COc1cc2c(cc1O)CC[n+]1cc3c(OC)c(OC)ccc3cc1-2` the TGI was greater than 100 µM. `NC(=S)N=Nc1c(O)cc(Nc2ccc(Cl)cc2Cl)c2ccccc12` showed a TGI greater than 100 µM. In the case of `CC[P+](C#Cc1ccccc1)(c1ccccc1)c1ccccc1`, the TGI is reported as 4.68 µM. Compound `Cc1ccc(C(=O)c2[nH]c(Nc3cc(C)ccn3)c(C(=S)Nc3ccccc3)c2N)cc1` has a TGI greater than 100 µM. In the case of `Clc1cccc(C2ON=C(c3ccccc3)N2C23CC4CC(CC(C4)C2)C3)c1Cl` (stereo not drawn), the TGI is reported as greater than 10 µM. `CNc1ccc2c(c1)Cc1ccccc1-2` showed a TGI greater than 100 µM. In the case of `CCN(CC(=O)O)CC(=O)O`, the TGI is reported as greater than 100 µM. Compound `Cc1cc(C)nc(NS(=O)(=O)c2ccc(Nc3c4ccccc4nc4c(C(=O)NCCO)cccc34)cc2)n1` has a TGI of 41.3 µM. In the case of `O=C1NN=C(c2c[nH]c3ccccc23)CC1NCc1ccccc1` (stereo not drawn), the TGI is reported as greater than 100 µM. Work on `O=C(NCCCNCCCCNCCCNC(=O)C(F)(F)F)C(F)(F)F` yielded a TGI greater than 100 µM. `O=C(O)c1cc2ccccc2c(S(=O)(=O)O)c1O` was tested, and the TGI was greater than 100 µM. Work on `COC(=O)c1sc2ncc3c(c2c1N)CC(C)CC3` (stereo not drawn) yielded a TGI greater than 100 µM. With `CCOC(=O)c1[nH]c2nc(SC)nc(NC)c2c1N` the TGI was greater than 100 µM. For `Cc1cccc(NC(Nc2cccc(C)c2)=C(C(Cl)=C(Cl)Cl)[N+](=O)[O-])c1`, the TGI was 41.2 µM. Compound `CC1=CCC[C@H]2[C@](C)(CC3=CC(=O)C4SCCSC4C3=O)[C@@H](C)CC[C@]12C` (stereo partly drawn) has a TGI of 38.4 µM. In the case of `COC(=O)C1=C(C(=O)OC)C2(C)CCC(=O)C1O2` (stereo not drawn), the TGI is reported as greater than 10 µM. Compound `Nc1n[nH]c2ccccc12` has a TGI greater than 100 µM.

Each compound was assayed on NCI-H460 lung (assay: inhibition of tumour cell growth, NCI panel, 48 h).
Compound `CC(O)(C(=O)N(O)c1ccc(Cl)cc1)c1ccc(Cl)cc1` (stereo not drawn) has a TGI greater than 100 µM. With `CC1(C)[C@@H]2C[C@H]1c1cnc(-c3ccccn3)cc1[C@H]2C(O)[C@@H]1c2cc(-c3ccccn3)ncc2[C@H]2C[C@@H]1C2(C)C` (stereo partly drawn) the TGI was 24.3 µM. `COc1ccc(N2C(=O)C3c4[nH]c5ccccc5c4C4C(C)CCCC4C3C2=O)cc1` (stereo not drawn) was tested, and the TGI was greater than 100 µM. `Brc1ccc2c(c1)-c1nc3c(cc1CC2)CCc1ccc(Br)cc1-3` was tested, and the TGI was greater than 100 µM. `OC(c1ccco1)C(F)(F)c1nc2ccccc2o1` (stereo not drawn) was tested, and the TGI was greater than 100 µM. `CCN(C(=O)N[C@H](C(=O)N[C@@H](C)C(=O)OC)C(C)C)c1ccccc1` gave a TGI of 66.2 µM. In the case of `CCOC(=O)c1ccc(C(=O)/C(C(=O)OC(C)(C)C)=C2\CCCN2C)n1C`, the TGI is reported as greater than 100 µM. In the case of `Cc1cc2c(cc1Cl)SC(NNc1cnc3ccccc3n1)=NS2(=O)=O`, the TGI is reported as greater than 100 µM. `O=[N+]([O-])c1ccc2nc3c(nc2c1)-c1c2ccccc2cc2cccc-3c12` gave a TGI greater than 100 µM.
